Values joined by “and” are separate entries in the source; they are usually repeats but may differ in a detail not shown here. Identical values can stand only once.
What was measured:
Assay type in all cases: cell-based, human
[1] = test system: Donor 1 GMA Expanded T-Cell Lines (222-AG11, 222-AG12, 222-BA11, 222-BC11); assay: ATP proliferation assay (CellTiter Glo), Donor 1 GMA expanded T-cell lines, incl. reactivity to non-canonical GA peptides; details: for Proliferation (luminescent ATP assay), Mean: T-cell line 222-AG12, autologous B-LCL
Procedure, shortened: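 GMA-expanded T-cell lines from Donor 1 restimulated with GMA (0–100 μg/mL), or with non-canonical GA peptides, COP and GMA (0–30 μg/mL; T cells 2×10^5 cells/mL). Mitomycin C-treated autologous PBMC or B-LCL served as APC. Proliferation read by CellTiter-Glo ATP luminescence after 3 days at 37° C.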

[2] = test system: Donor 3 COP T-Cell Lines; assay: ATP proliferation assay (CellTiter Glo), Donor 3 COP T-cell lines, incl. reactivity to non-canonical GA peptides; details: for Non-Canonical Peptide Non-Reactivity: proliferation <2 times no antigen control
[3] = test system: Donor 4 COP T-Cell Lines; assay: ATP proliferation assay (CellTiter Glo), Donor 4 COP T-cell lines, incl. reactivity to non-canonical GA peptides; details: for Non-Canonical Peptide Non-Reactivity: proliferation <2 times no antigen control; for Proliferation (luminescent ATP assay), Mean: T-cell line 205-1F4, Day 71, autologous B-LCL

## poly (Glu-Ala-Tyr; 6:3:1) [GAT 631]
[1]; 222-AG12, proliferation <2 times no antigen control
  Non-Canonical Peptide Non-Reactivity: GAT 631
[1]; Donor 1 GMA expanded lines, stimulation with the non-canonical GA peptide
  Nonreactive T-Cell Line: 222-AG12 (Donor 1)
[1]; 1 ug/mL antigen
  Proliferation (luminescent ATP assay), Mean: 3442 RLU
[1]; 10 ug/mL antigen
  Proliferation (luminescent ATP assay), Mean: 3217 RLU
[1]; 30 ug/mL antigen
  Proliferation (luminescent ATP assay), Mean: 3548 RLU
[2]; 165-B6C
  Non-Canonical Peptide Non-Reactivity: GAT 631
[2]; 165-C4C
  Non-Canonical Peptide Non-Reactivity: GAT 631
[2]; 165-C7C
  Non-Canonical Peptide Non-Reactivity: GAT 631
[2]; 165-E3C, separate experiment
  proliferation response to non-canonical peptides: did not react
[2]; 165-F3C
  Non-Canonical Peptide Non-Reactivity: GAT 631
[2]; 165-F6C
  Non-Canonical Peptide Non-Reactivity: GAT 631
[2]; 165-U3C (so in the source)
  Non-Canonical Peptide Non-Reactivity: GAT 631
[2]; Donor 3 COP lines, stimulation with the non-canonical GA peptide
  Nonreactive T-Cell Line: 165-B6C (Donor 3) and 165-C4C (Donor 3) and 165-C7C (Donor 3) and 165-E3C (Donor 3) and 165-F3C (Donor 3) and 165-F6C (Donor 3)
[2]; T-cell line 165-C4C, 1 μg/mL antigen, Day 66 of culture, 0 μg/mL 1881
  Proliferation (luminescent ATP assay), Mean: 2489
[2]; T-cell line 165-C4C, 3 μg/mL antigen, Day 66 of culture, 0 μg/mL 1881
  Proliferation (luminescent ATP assay), Mean: 2687
[2]; T-cell line 165-C4C, 10 μg/mL antigen, Day 66 of culture, 0 μg/mL 1881
  Proliferation (luminescent ATP assay), Mean: 2682
[2]; T-cell line 165-C7C, 1.25 μg/mL antigen, autologous B-LCL
  Proliferation (luminescent ATP assay), Mean: 232 RLU
[2]; T-cell line 165-C7C, 2.5 μg/mL antigen, autologous B-LCL
  Proliferation (luminescent ATP assay), Mean: 204 RLU
[2]; T-cell line 165-C7C, 5 μg/mL antigen, autologous B-LCL
  Proliferation (luminescent ATP assay), Mean: 200 RLU
[2]; T-cell line 165-C7C, 10 μg/mL antigen, autologous B-LCL
  Proliferation (luminescent ATP assay), Mean: 184 RLU
[2]; T-cell line 165-F3C, 1 μg/mL antigen, Day 77 of culture, 0 μg/mL 1563
  Proliferation (luminescent ATP assay), Mean: 2389
[2]; T-cell line 165-F3C, 3 μg/mL antigen, Day 77 of culture, 0 μg/mL 1563
  Proliferation (luminescent ATP assay), Mean: 2249
[2]; T-cell line 165-F3C, 10 μg/mL antigen, Day 77 of culture, 0 μg/mL 1563
  Proliferation (luminescent ATP assay), Mean: 2391
[2]; T-cell line 165-F6C, 1.25 μg/mL antigen, Day 76 of culture, No Antigen value 517
  Proliferation (luminescent ATP assay), Mean: 516
[2]; T-cell line 165-F6C, 2.5 μg/mL antigen, Day 76 of culture, No Antigen value 517
  Proliferation (luminescent ATP assay), Mean: 479
[2]; T-cell line 165-F6C, 5 μg/mL antigen, Day 76 of culture, No Antigen value 517
  Proliferation (luminescent ATP assay), Mean: 463
[2]; T-cell line 165-F6C, 10 μg/mL antigen, Day 76 of culture, No Antigen value 517
  Proliferation (luminescent ATP assay), Mean: 449
[3]; 205-1B4
  Non-Canonical Peptide Non-Reactivity: GAT 631
[3]; 205-1C4
  Non-Canonical Peptide Non-Reactivity: GAT 631
[3]; 205-1F4
  Non-Canonical Peptide Non-Reactivity: GAT 631
[3]; 205-1H3
  Non-Canonical Peptide Non-Reactivity: GAT 631
[3]; 205-1H5
  Non-Canonical Peptide Non-Reactivity: GAT 631
[3]; 205-1H7, after seven stimulations, 0, 1, 10, 30 μg/mL
  reactivity to non-canonical GA peptides: not
[3]; 205-1H7
  Non-Canonical Peptide Non-Reactivity: GAT 631
[3]; 205-1H11
  Non-Canonical Peptide Non-Reactivity: GAT 631
[3]; Donor 4 COP lines, stimulation with the non-canonical GA peptide
  Nonreactive T-Cell Line: 205-1C4 (Donor 4) and 205-1F4 (Donor 4) and 205-1H3 (Donor 4) and 205-1H5 (Donor 4) and 205-1H7 (Donor 4) and 205-1H11 (Donor 4)
[3]; T-cell line 205-1B4, 1 μg/mL antigen, No Antigen 830
  Reactivity (proliferation), Mean: 843 RLU
[3]; T-cell line 205-1B4, 3 μg/mL antigen, No Antigen 830
  Reactivity (proliferation), Mean: 890 RLU
[3]; T-cell line 205-1B4, 10 μg/mL antigen, No Antigen 830
  Reactivity (proliferation), Mean: 845 RLU
[3]; T-cell line 205-1B4, 30 μg/mL antigen, No Antigen 830
  Reactivity (proliferation), Mean: 766 RLU
[3]; T-cell line 205-1C4, 1 μg/mL antigen, No Antigen 4464
  Reactivity (proliferation), Mean: 4856 RLU
[3]; T-cell line 205-1C4, 3 μg/mL antigen, No Antigen 4464
  Reactivity (proliferation), Mean: 5584 RLU
[3]; T-cell line 205-1C4, 10 μg/mL antigen, No Antigen 4464
  Reactivity (proliferation), Mean: 5666 RLU
[3]; T-cell line 205-1C4, 30 μg/mL antigen, No Antigen 4464
  Reactivity (proliferation), Mean: 5137 RLU
[3]; 1 μg/mL antigen
  Proliferation (luminescent ATP assay), Mean: 2424
[3]; 3 μg/mL antigen
  Proliferation (luminescent ATP assay), Mean: 2439
[3]; 10 μg/mL antigen
  Proliferation (luminescent ATP assay), Mean: 3035
[3]; T-cell line 205-1H5, 1 μg/mL antigen, No Antigen 749
  Reactivity (proliferation), Mean: 648 RLU
[3]; T-cell line 205-1H5, 3 μg/mL antigen, No Antigen 749
  Reactivity (proliferation), Mean: 696 RLU
[3]; T-cell line 205-1H5, 10 μg/mL antigen, No Antigen 749
  Reactivity (proliferation), Mean: 698 RLU
[3]; T-cell line 205-1H5, 30 μg/mL antigen, No Antigen 749
  Reactivity (proliferation), Mean: 669 RLU

— patent US9995734B2, “Human T cell line assay for evaluating the immunologic identity of glatiramer acetate preparations” (Mylan Inc., priority 2013, dated 2018)
